Patent US9758472B2, “Non-lactone carbocyclic and heterocyclic antagonists and agonists of bacterial quorum sensing” (WISCONSIN ALUMNI RESEARCH FOUNDATION, priority 2009, dated 2017)
Like-named read-outs stand apart in the source and are kept apart here.

Assays:
[1] = molecular target: T1, LasR (Pseudomonas aeruginosa, UniProt P25084); test: LasR antagonism assay, E. coli DH5α (pJN105L+pSC11) β-galactosidase reporter strain; type: cell-based, P. aeruginosa
T1 construct: expressed in transfected cells; host or cells: Escherichia coli DH5α (pJN105L+pSC11)
T1 sequence (P25084 whole entry): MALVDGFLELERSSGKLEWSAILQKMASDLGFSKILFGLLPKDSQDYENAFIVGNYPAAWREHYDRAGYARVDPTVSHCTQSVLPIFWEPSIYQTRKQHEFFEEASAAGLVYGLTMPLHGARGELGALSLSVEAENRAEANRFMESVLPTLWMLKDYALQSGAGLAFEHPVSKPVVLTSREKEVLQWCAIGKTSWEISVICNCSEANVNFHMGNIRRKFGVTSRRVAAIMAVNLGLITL
Description: (§1) FIG. 5B is a bar graph showing the results of […] assay for initial heterocyclic and carbocyclic library (Scheme 1) shown as a percent of the positive control. Antagonism positive control (Pos)=activity of the reporter strain in the absence of synthetic ligand at the EC50 value for the strain. […] Negative control (Neg)=bacteria in the absence of natural and synthetic ligand. Error bars=standard deviation of the mean of triplicate samples.
(§2) The initial library was tested for LasR agonistic and antagonistic activity in two strains: Escherichia coli DH5α (pJN105L+pSC11) [Lee, J. H.; Lequette, Y.; Greenberg, E. P., Activity of purified QscR, a Pseudomonas aeruginosa orphan quorum-sensing transcription factor. Mol. Microbiol. 2006, 59 (2), 602-609] and P. aeruginosa PA01 MW1 (pUM15) [Muh, U.; Schuster, M.; Heim, R.; Singh, A.; Olson, E.; Greenberg, E. P., Novel Pseudomonas aeruginosa Quorum-Sensing Inhibitors Identified in an Ultra-High-Throughput Screen. Antimicrob. Agents Chemother. 2006, 50, 3674-3679] (FIGS. 5A and 5B). Both strains allow for synthetic autoinducer mimic evaluation and contain a reporter gene that allows for a quantitative readout of QS activity. DH5α (pJN105L+pSC11) is a heterologous β-galactosidase E. coli reporter strain containing a plasmid for the P. aeruginosa LasR gene. The PA01 MW1 (pUM15) strain uses the natural P. aeruginosa background containing a LasI deletion and the gene for yellow fluorescent protein (YFP) under the control of the LasI promoter to evaluate the LasI/R activity. Since the PA01 MW1 (pUM15) strain evaluates LasR in the natural P. aeruginosa background, in contrast to the heterologous E. coli strain, an improved idea of the interplay between the isolated LasI/R system and the combination of LasI/R with other QS subsystems such as QscR can be determined. Furthermore, additional nuances of the natural system such as compound permeability are incorporated in assays using the PA01 MW1 (pUM15) strain.

[2] = molecular target: T1, LasR; test: LasR agonism assay, E. coli DH5α (pJN105L+pSC11) β-galactosidase reporter strain; type: cell-based, P. aeruginosa; details: for Act %: thiolactone libraries, E. coli, synthetic ligands tested at 10 μM
Description: (§3) The black bars are DH5α (pJN105L+pSC11) and the grey bars are PA01 MW1 (pUM15). Agonism positive control=activity of the reporter strain at full turn on for the strain. […] Negative control (Neg)=bacteria in the absence of natural and synthetic ligand. Error bars=standard deviation of the mean of triplicate samples.
as §2

[3] = molecular target: T1, LasR; test: LasR agonism assay, P. aeruginosa PA01 MW1 (pUM15) YFP reporter strain; type: cell-based; details: for Act %: thiolactone libraries, P. aeruginosa, synthetic ligands tested at 10 μM
Description: as §3, §2

[4] = Functional half-life of autoinducers: ligand pre-incubated in media, then PA01 MW1 (pUM15) agonism readout; type: cell-based, P. aeruginosa; details: ligand incubated in media with antibiotics at 37° C.; pseudo first order, t1/2=ln(2)/slope
Description: [Glansdorp, F. G.; Thomas, G. L.; Lee, J. K.; Dutton, J. M.; Salmond, G. P. C.; Welch, M.; Spring, D. R., Synthesis and stability of small molecule probes for Pseudomonas aeruginosa quorum sensing modulation. Org. Biomol. Chem. 2004, 2, 3329-3336.] […] In these cases the results were determined by NMR experiments conducted in deuterated buffers. […] Unfortunately, the use of high levels of DMSO reduces the biological relevance of the assay because large concentrations of DMSO cannot be tolerated by biological systems. Furthermore, the required concentrations of ligand are lower in a biologically based functional assay than in an NMR experiment because YFP production is much more sensitive than NMR, which requires relatively high concentrations.
In this assay, media, ligand, and antibiotics are prepared in Teflon-capped vials and allowed to incubate at 37° C. for predetermined times. P. aeruginosa cells from the strain PA01 MW1 (pUM15) were cultured overnight. These cells were then pelleted and washed with LB containing 50 mM MOPS. […] The 96 well plate was incubated for 8 hours and then analyzed for optical density and YFP fluorescence. […] Fluorescence was normalized to cell density and time points were analyzed as a percentage of the ability of the freshly prepared natural ligand to agonize the P. aeruginosa system. […]

[5] = molecular target: T2, TraR (Agrobacterium tumefaciens, UniProt P33905); test: cell-based; type: cell-based; design: and Agrobacterium tumefaciens WCF (pCF372); endogenous in cells; host or cells: Agrobacterium tumefaciens WCF (pCF372)
T2 sequence (P33905 whole entry): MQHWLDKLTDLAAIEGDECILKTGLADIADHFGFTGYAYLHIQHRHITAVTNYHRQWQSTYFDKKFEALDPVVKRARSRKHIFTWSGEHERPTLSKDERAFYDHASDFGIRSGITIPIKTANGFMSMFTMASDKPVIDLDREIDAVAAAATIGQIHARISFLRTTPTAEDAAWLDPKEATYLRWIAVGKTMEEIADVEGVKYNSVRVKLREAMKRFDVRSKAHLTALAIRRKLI
Description: (§4) The initial library was also tested in Vibrio fischeri ESI 114 (Δ-LuxI) [Lupp, C.; Urbanowski, M.; Greenberg, E. P.; Ruby, E. G., The Vibrio fischeri quorum-sensing systems ain and lux sequentially induce luminescence gene expression and are important for persistence in the squid host. Mol. Microbiol. 2003, 50 (1), 319-331] and Agrobacterium tumefaciens WCF (pCF372). […] J. Bacteriol. 1998, 180 (20), 5398-5405.] […] [Geske, G. D.; O'Neill, J. C.; Miller, D. M.; Mattmann, M. E.; Blackwell, H. E., Modulation of Bacterial Quorum Sensing: Systematic Evaluation of N-Acylated Homoserine Lactones in Multiple Species and New Insights into Their Mechanism of Action. J. Am. Chem. Soc. 2007, 129, 13613-13625.]

[6] = molecular target: T3, LuxR (Aliivibrio fischeri, UniProt P35327); test: cell-based; type: cell-based, Vibrio fischeri; design: The initial library was also tested in Vibrio fischeri ESI 114 (Δ-LuxI); endogenous in cells; host or cells: Vibrio fischeri ESI 114 (Δ-LuxI); details: for IC50: dose response
T3 sequence (P35327 whole entry): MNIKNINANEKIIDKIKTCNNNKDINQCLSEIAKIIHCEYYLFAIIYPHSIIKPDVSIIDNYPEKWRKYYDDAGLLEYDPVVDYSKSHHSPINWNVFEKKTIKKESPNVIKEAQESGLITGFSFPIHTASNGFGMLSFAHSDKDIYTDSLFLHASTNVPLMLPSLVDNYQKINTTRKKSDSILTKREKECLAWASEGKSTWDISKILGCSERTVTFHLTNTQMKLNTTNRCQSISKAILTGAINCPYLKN
Description: as §4

[7] = molecular target: T1, LasR; test: LasR antagonism assay, P. aeruginosa PA01 MW1 (pUM15) YFP reporter strain; type: cell-based; details: initial library (FIG. 4); P. aeruginosa PA01 MW1; negative values indicate agonist properties
Description: as §1, §2

[8] = molecular target: T3, LuxR; details: initial library (FIG. 4); V. fischeri ESI 114 (Δ-LuxI)
Description: as §4

[9] = molecular target: T2, TraR; details: dose response; A. tumefaciens WCF (pCF372)
Description: as §4

[10] = molecular target: T1, LasR; test: LasR antagonism assay, E. coli DH5α (pJN105L+pSC11) β-galactosidase reporter strain; type: cell-based, P. aeruginosa; details: thiolactone libraries, synthetic ligands tested at 10 μM
[11] = cited from earlier work

Q: Which results are given for `CCCCCCCCCC(=O)CC(=O)N[C@H]1CCSC1=O` [Compound 1E]?
A: inhibition at 10 µM ([1]; read-out: Inhib %): -61%; LasR agonism, in words ([2]; E. coli DH5α (pJN105L+pSC11)): strong agonists; EC50 ([2]; dose response, E. coli DH5α (pJN105L+pSC11)): 0.092 µM; Act % [2]: 102%; EC50 ([3]; dose response, P. aeruginosa PA01 MW1 (pUM15)): 3.2 µM; Act % [3]: 127%; half-life [4]: 82.3 h; IC50 ([5]; dose response, A. tumefaciens WCF (pCF372)): 1.8 µM; inhibition at 10 µM ([5]; read-out: Inhib %): 51%; IC50 ([6]; V. fischeri ESI 114 (Δ-LuxI)): 0.45 µM; inhibition at 10 µM ([6]; read-out: Inhib %): 91%

Q: Which “Antagonist, percent inhibition compared to a positive control” value (“Antagonist, percent inhibition” below) ([1]; initial library (FIG. 4), E. coli DH5α (pJN105L+pSC11), negative values indicate agonist properties) does the source give for `CCCCCCCCCC(=O)CC(=O)NCc1cccc([N+](=O)[O-])c1` [Compound 13] here?
A: Its value is 41.0%.

Q: What about the “Antagonist, percent inhibition” value [7] of the same molecule?
A: Its value is 16.8%.

Q: What about the “Agonist, percent of activation compared to the positive control” value [8] of the same molecule?
A: The value was 1.7%.

Q: What about the “Antagonist, percent inhibition” value ([6]; initial library (FIG. 4), V. fischeri ESI 114 (Δ-LuxI)) of the same molecule?
A: The value was 43.8%.

Q: For `CCCCCC(=O)CC(=O)N[C@H]1CCSC1=O` [Compound 24E], which Act % [2] is on record?
A: Its Act % is 0%.

Q: What about the Act % [3] of the same molecule?
A: Its Act % is 3%.

Q: What about the EC50 [9] of the same molecule?
A: The EC50 was 20 µM.

Q: What about the Inhib % [10] of the same molecule?
A: Its Inhib % is −30%.

Q: And the Inhib % ([5]; thiolactone libraries, A. tumefaciens, synthetic ligands tested at 10 μM)?
A: Its Inhib % is −89%.

Q: And the IC50 ([6]; V. fischeri ESI 114 (Δ-LuxI))?
A: Its IC50 is 0.35 µM.

Q: And the Inhib % ([6]; thiolactone libraries, V. fischeri, synthetic ligands tested at 10 μM)?
A: The Inhib % was 99%.

Q: Which half-life [4] does the source give for `CCCCCCCCCC(=O)CC(=O)N[C@H]1CCOC1=O` [OdDHL, 3-oxo-dodecanoyal homoserine lactone] here?
A: Its half-life is 48.2 h.

Q: What about the hydrolysis half-life ([11]; previous experiments, NMR in deuterated buffers, 50% solution of DMSO) of the same molecule?
A: The hydrolysis half-life was “approximately two”.

Q: And the “racemization of the chiral center” value ([11]; previous experiments, over the course of a week)?
A: Its value is “less than 5%”.

Q: What about the half-life ([11]; previous literature, growth media at 37° C.) of the same molecule?
A: The half-life was “approximately two”.
